From patent US6087355A, “Cephalosporin antibiotics” (Microcide Pharmaceuticals, Inc., priority 1996, dated 2000) come the findings set out here.

Structures are written as SMILES. Structures can show the parent of a compound that is named as a salt. A value given as a limit tells only on which side of the number the result lay.

What all share (assay): In vitro MIC, agar dilution
Type in all cases: cell-based
For orientation: Agar dilution tests growth on a series of plates holding different concentrations.

For experiment [1], the system named is S. aureus Spain #356(Meth^R). The following applies: Staphylococcus aureus, read-out: minimum inhibitory concentration (MIC). In outline: (§1)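 Agar dilution on Mueller-Hinton plates: spots of roughly 10^4 cfu of log-phase bacteria were placed on agar containing serial two-fold compound dilutions, from a 128 μg/mL top working level to ≤0.25 μg/mL, each in duplicate. After 16-20 hours at 35-36° C, the lowest growth-inhibiting concentration was taken as the MIC.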

The subject of a further experiment is S. aureus ATCC 29213. The following applies: Staphylococcus aureus, ATCC29213, read-out: minimum inhibitory concentration (MIC). In outline:
as §1

The test system of experiment [2] is S. aureus 76(Meth^R)(lac^+). The settings on record: Staphylococcus aureus, read-out: minimum inhibitory concentration (MIC). In outline:
as §1

Experiment [3] concerns S. aureus ATCC 33593(Meth^R). The settings on record: Staphylococcus aureus, ATCC33593, read-out: minimum inhibitory concentration (MIC). An outline of the steps: as §1
The subject of the next experiment is E. coli ATCC 25992. The following applies: Escherichia coli, ATCC25992, read-out: minimum inhibitory concentration (MIC). An outline of the steps:
as §1

The test system of the next experiment is E. faecium VanA(Van^R). The following applies: Enterococcus faecium, read-out: minimum inhibitory concentration (MIC). An outline of the steps: as §1
For a further experiment, the system named is E. faecium A491(Amp^R). The settings on record: Enterococcus faecium, read-out: minimum inhibitory concentration (MIC). In outline:
as §1

For a further experiment, the system named is E. faecium ATCC 35667. The following applies: Enterococcus faecium, ATCC35667, read-out: minimum inhibitory concentration (MIC). An outline of the steps:
as §1

The test system of experiment [4] is S. haemolyticus 05(Meth^R). The following applies: Staphylococcus haemolyticus, read-out: minimum inhibitory concentration (MIC). In outline: as §1
In experiment [5] the test system is S. aureus PC1(Meth^S)(lac^+). The following applies: Staphylococcus aureus, read-out: minimum inhibitory concentration (MIC). In outline: as §1
The subject of a further experiment is P. aeruginosa ATCC 27853. The following applies: Pseudomonas aeruginosa, ATCC27853, read-out: minimum inhibitory concentration (MIC). In outline: as §1
Experiment [6] deals with S. aureus ATCC 13709(Meth^S). The settings on record: Staphylococcus aureus, ATCC13709, S. aureus ATCC 13709(Meth^S); read-out: minimum inhibitory concentration (MIC). An outline of the steps: as §1
A further experiment relates to E. faecalis ATCC 29212. The following applies: Enterococcus faecalis, ATCC29212, read-out: minimum inhibitory concentration (MIC). An outline of the steps: as §1
In another experiment the test system is E. faecalis VanB(Van^R). The settings on record: Enterococcus faecalis, read-out: minimum inhibitory concentration (MIC). An outline of the steps: as §1
Experiment [7] has as its system S. aureus Col(Meth^R)(lac^-). The following applies: Staphylococcus aureus, read-out: minimum inhibitory concentration (MIC). In outline:
(§2)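 Two-fold dilutions (128 to ≤0.25 μg/mL, in duplicate) were poured into Mueller-Hinton agar. Log-phase broth cultures were spot-inoculated at about 10^4 cfu per spot and incubated 35-36°C for 16-20 hours; the MIC was the lowest concentration inhibiting growth. Col is a high-level PBP2a producer; Col 8A is its isogenic PBP2a-lacking partner.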

Experiment [8] relates to S. aureus Col8A(Meth^S)(lac^-). The settings on record: Staphylococcus aureus; S. aureus Col8A(Meth^S)(lac^-); read-out: minimum inhibitory concentration (MIC). An outline of the steps:
as §2

For `Nc1nc(/C(=N/O)C(=O)N[C@@H]2C(=O)N3C(C(=O)O)=C(Sc4ccncc4CSC4CCNC4)CS[C@H]23)c(Cl)s1` (stereo partly drawn) [Cmpd 42, (7R)-7-[(Z)-2-(2-amino-5-chlorothiazol-4-yl)-2-(hydroxyimino)acetamido]-3-(3-(pyrrolidin-3-ylthiomethyl)pyrid-4-ylthio)-3-cephem-4-carboxylate, trifluoroacetic acid salt], the MIC in experiment [1] came out at 1 µg/mL; with S. aureus ATCC 29213, 0.13 µg/mL; in experiment [2], 1 µg/mL; in experiment [3], 1 µg/mL; in the experiment with E. coli ATCC 25992 it was 2 µg/mL; in the experiment with E. faecium VanA(Van^R), 0.5 µg/mL. Besides, the MIC in the experiment on E. faecium A491(Amp^R) is 4 µg/mL; in the experiment on E. faecium ATCC 35667, 0.25 µg/mL; in [4], 2 µg/mL; in [5] it was 0.13 µg/mL; in the experiment on P. aeruginosa ATCC 27853, 32 µg/mL; in [6] it was 0.13 µg/mL. For the same molecule, the MIC is at most 0.06 µg/mL in the experiment on E. faecalis ATCC 29212, at most 0.06 µg/mL in the experiment with E. faecalis VanB(Van^R), 0.5 µg/mL in experiment [7] and 0.25 µg/mL in [8].
As to `NCC(=O)NCCCSCc1cnccc1SC1=C(C(=O)O)N2C(=O)[C@@H](NC(=O)/C(=N\O)c3nc(N)sc3Cl)[C@H]2SC1` [Cmpd 35, (7R)-7-[(Z)-2-(2-amino-5-chlorothiazol-4-yl)-2-(hydroxyimino)acetamido]-3-[3-(glycyl)aminopropylthiomethylpyrid-4-ylthio]-3-cephem-4-carboxylate, trifluoroacetic acid salt], the MIC came to 2 µg/mL in experiment [1]; 0.25 µg/mL in the experiment with S. aureus ATCC 29213; 2 µg/mL in experiment [2]; 2 µg/mL in experiment [3]; 8 µg/mL in the experiment on E. coli ATCC 25992; 0.5 µg/mL with E. faecium VanA(Van^R). The MIC in the experiment with E. faecium A491(Amp^R) is 4 µg/mL; with E. faecium ATCC 35667, 0.25 µg/mL; in experiment [4], 4 µg/mL; in experiment [5], 0.5 µg/mL; in the experiment with P. aeruginosa ATCC 27853, over 32 µg/mL; in experiment [6], 0.25 µg/mL. For the same molecule, the MIC in the experiment on E. faecalis ATCC 29212 is at most 0.06 µg/mL; with E. faecalis VanB(Van^R), 0.25 µg/mL; in experiment [7], 2 µg/mL; in experiment [8] it was 0.25 µg/mL.
`N=C(N)SCc1ncsc1SC1=C(C(=O)O)N2C(=O)[C@@H](NC(=O)Cc3ccccc3)[C@H]2SC1` [Cmpd 5, (7R)-7-[(phenylacetyl)amino]-3-(4-isothioureidomethylthiazol-5-ylthio)-3-cephem-4-carboxylate, trifluoroacetic acid salt]: the MIC in experiment [1] is 16 µg/mL; with S. aureus ATCC 29213 it was 0.13 µg/mL; in [2], 16 µg/mL; in experiment [3] it was 16 µg/mL; in the experiment with E. coli ATCC 25992, over 32 µg/mL; in the experiment with E. faecium VanA(Van^R), 32 µg/mL. Further, the MIC in the experiment on E. faecium A491(Amp^R) is over 32 µg/mL; in the experiment with E. faecium ATCC 35667 it was 4 µg/mL; in [4] it was 16 µg/mL; in experiment [5], 0.25 µg/mL; in the experiment with P. aeruginosa ATCC 27853, over 32 µg/mL; in [6] it was at most 0.06 µg/mL. The MIC with E. faecalis ATCC 29212 was 2 µg/mL; in the experiment with E. faecalis VanB(Van^R), 4 µg/mL; in [7], 8 µg/mL; in [8], at most 0.06 µg/mL.
As to `NCCSCc1nnsc1SC1=C(C(=O)O)N2C(=O)[C@@H](NC(=O)/C(=N\O)c3csc(N)n3)[C@H]2SC1` [Cmpd 38, (7R)-7-[(Z)-2-(aminothiazol-4-yl)-2-(hydroxyimino)acetamido]-3-(4-(2-aminoethylthiomethyl)-1,2,3-thiadiazol-5-ylthio)-3-cephem-4-carboxylate, trifluoroacetic acid salt], the MIC in experiment [1] came to 1 µg/mL; with S. aureus ATCC 29213, 0.13 µg/mL; in experiment [2], 1 µg/mL; in [3], 1 µg/mL; in the experiment with E. coli ATCC 25992, 2 µg/mL; in the experiment on E. faecium VanA(Van^R), 2 µg/mL. In addition, the MIC is over 32 µg/mL in the experiment on E. faecium A491(Amp^R); 1 µg/mL in the experiment with E. faecium ATCC 35667; 2 µg/mL in experiment [4]; 0.25 µg/mL in experiment [5]; over 32 µg/mL in the experiment with P. aeruginosa ATCC 27853; 0.13 µg/mL in experiment [6]. The MIC with E. faecalis ATCC 29212 is 0.13 µg/mL; in the experiment on E. faecalis VanB(Van^R), 0.13 µg/mL; in experiment [7] it was 1 µg/mL; in [8], 0.13 µg/mL.
`NCCSCc1cnccc1SC1=C(C(=O)O)N2C(=O)[C@@H](NC(=O)Cc3ccccc3)[C@H]2SC1.O=C(O)C(F)(F)F` [Cmpd 9, (7R)-7-[(phenylacetyl)amino]-3-(3-aminoethylthiomethylpyrid-4-ylthio)-3-cephem-4-carboxylate, trifluoroacetic acid salt]: the MIC in experiment [1] is 4 µg/mL; in the experiment with S. aureus ATCC 29213 it was 0.25 µg/mL; in experiment [2] it was 4 µg/mL; in experiment [3], 4 µg/mL; in the experiment with E. coli ATCC 25992, over 32 µg/mL; in the experiment with E. faecium VanA(Van^R), 4 µg/mL. The MIC in the experiment with E. faecium A491(Amp^R) is over 32 µg/mL; with E. faecium ATCC 35667, 1 µg/mL; in experiment [4], 16 µg/mL; in experiment [5], 1 µg/mL; in the experiment on P. aeruginosa ATCC 27853, over 32 µg/mL; in experiment [6] it was at most 0.06 µg/mL. For the same molecule, the MIC with E. faecalis ATCC 29212 came out at 1 µg/mL; in the experiment on E. faecalis VanB(Van^R), 2 µg/mL; in experiment [7], 1 µg/mL; in [8] it was 0.13 µg/mL.
As to `N=C(N)SCc1ncsc1SC1=C(C(=O)O)N2C(=O)[C@@H](NC(=O)/C(=N\O)c3csc(N)n3)[C@H]2SC1` [Cmpd 7, (7R)-7-[(Z)-2-(aminothiazol-4-yl)-2-(hydroxyimino)acetamido]-3-(4-isothioureidomethylthiazol-5-ylthio)-3-cephem-4-carboxylate, trifluoroacetic acid salt], the MIC in experiment [1] was 8 µg/mL; in the experiment with S. aureus ATCC 29213, 0.5 µg/mL; in [2] it was 8 µg/mL; in experiment [3], 8 µg/mL; with E. coli ATCC 25992, 4 µg/mL; in the experiment on E. faecium VanA(Van^R) it was 16 µg/mL. Also, the MIC is over 32 µg/mL with E. faecium A491(Amp^R); 4 µg/mL in the experiment on E. faecium ATCC 35667; 32 µg/mL in experiment [4]; 2 µg/mL in experiment [5]; over 32 µg/mL with P. aeruginosa ATCC 27853; 0.5 µg/mL in experiment [6]. Besides, the MIC was 1 µg/mL with E. faecalis ATCC 29212, 2 µg/mL with E. faecalis VanB(Van^R), 8 µg/mL in experiment [7] and 0.5 µg/mL in experiment [8].
Consider `N=CNCCCSCc1cnccc1SC1=C(C(=O)O)N2C(=O)[C@@H](NC(=O)/C(=N\O)c3nc(N)sc3Cl)[C@H]2SC1` [Cmpd 34, (7R)-7-[(Z)-2-(2-amino-5-chlorothiazol-4-yl)-2-(hydroxyimino)acetamido]-3-(3-(3-N-formamidoylaminopropylthiomethyl)pyrid-4-ylthio)-3-cephem-4-carboxylate, trifluoroacetic acid salt], for which the MIC in experiment [1] is 1 µg/mL; in the experiment on S. aureus ATCC 29213, at most 0.06 µg/mL; in [2], 1 µg/mL; in experiment [3], 1 µg/mL; in the experiment with E. coli ATCC 25992, 4 µg/mL; in the experiment with E. faecium VanA(Van^R) it was 0.5 µg/mL. For the same molecule, the MIC is 4 µg/mL in the experiment with E. faecium A491(Amp^R); 0.25 µg/mL with E. faecium ATCC 35667; 2 µg/mL in experiment [4]; 0.13 µg/mL in experiment [5]; over 32 µg/mL in the experiment with P. aeruginosa ATCC 27853; at most 0.06 µg/mL in experiment [6]. Moreover, the MIC with E. faecalis ATCC 29212 was at most 0.06 µg/mL; with E. faecalis VanB(Van^R), at most 0.06 µg/mL; in experiment [7], 1 µg/mL; in experiment [8] it was at most 0.06 µg/mL.
Regarding `CN(C)C(=O)[C@@H]1CC(SCc2cnccc2SC2=C(C(=O)O)N3C(=O)[C@@H](NC(=O)/C(=N\O)c4nc(N)sc4Cl)[C@H]3SC2)CN1` (stereo partly drawn) [Cmpd 55, (7R)-7-[(Z)-2-(2-amino-5-chlorothiazol-4-yl)-2-(hydroxyimino)acetamido]-3-(3-(5S-5-N,N-dimethylcarboxamidopyrrolidin-3-ylthiomethyl)pyrid-4-ylthio)-3-cephem-4-carboxylate, trifluoroacetic acid salt], the MIC in [1] amounted to 4 µg/mL; in the experiment on S. aureus ATCC 29213 it was 0.5 µg/mL; in experiment [2], 4 µg/mL; in experiment [3], 2 µg/mL; in the experiment on E. coli ATCC 25992, 8 µg/mL; with E. faecium VanA(Van^R), 2 µg/mL. The MIC in the experiment with E. faecium A491(Amp^R) is 16 µg/mL; in the experiment on E. faecium ATCC 35667, 0.5 µg/mL; in experiment [4] it was 4 µg/mL; in [5] it was 1 µg/mL; in the experiment on P. aeruginosa ATCC 27853, over 32 µg/mL; in experiment [6], 0.25 µg/mL. Besides, the MIC in the experiment on E. faecalis ATCC 29212 was found to be 0.25 µg/mL; in the experiment with E. faecalis VanB(Van^R) it was 0.5 µg/mL; in experiment [7], 4 µg/mL; in [8], 0.5 µg/mL.
